Structures are written as SMILES.

From patent EP4722213A1, “NITROGEN-CONTAINING FUNCTIONAL GROUP-SUBSTITUTED PYRIDAZINOPYRIDONE DERIVATIVE AND USE THEREOF” (Sichuan Huiyu Pharmaceutical Co., Ltd., priority 2023, dated 2024) come the findings set out here.

This assay addresses T1, SOS1 (Homo sapiens, UniProt Q07889).
T1 sequence (Q07889 1-1333): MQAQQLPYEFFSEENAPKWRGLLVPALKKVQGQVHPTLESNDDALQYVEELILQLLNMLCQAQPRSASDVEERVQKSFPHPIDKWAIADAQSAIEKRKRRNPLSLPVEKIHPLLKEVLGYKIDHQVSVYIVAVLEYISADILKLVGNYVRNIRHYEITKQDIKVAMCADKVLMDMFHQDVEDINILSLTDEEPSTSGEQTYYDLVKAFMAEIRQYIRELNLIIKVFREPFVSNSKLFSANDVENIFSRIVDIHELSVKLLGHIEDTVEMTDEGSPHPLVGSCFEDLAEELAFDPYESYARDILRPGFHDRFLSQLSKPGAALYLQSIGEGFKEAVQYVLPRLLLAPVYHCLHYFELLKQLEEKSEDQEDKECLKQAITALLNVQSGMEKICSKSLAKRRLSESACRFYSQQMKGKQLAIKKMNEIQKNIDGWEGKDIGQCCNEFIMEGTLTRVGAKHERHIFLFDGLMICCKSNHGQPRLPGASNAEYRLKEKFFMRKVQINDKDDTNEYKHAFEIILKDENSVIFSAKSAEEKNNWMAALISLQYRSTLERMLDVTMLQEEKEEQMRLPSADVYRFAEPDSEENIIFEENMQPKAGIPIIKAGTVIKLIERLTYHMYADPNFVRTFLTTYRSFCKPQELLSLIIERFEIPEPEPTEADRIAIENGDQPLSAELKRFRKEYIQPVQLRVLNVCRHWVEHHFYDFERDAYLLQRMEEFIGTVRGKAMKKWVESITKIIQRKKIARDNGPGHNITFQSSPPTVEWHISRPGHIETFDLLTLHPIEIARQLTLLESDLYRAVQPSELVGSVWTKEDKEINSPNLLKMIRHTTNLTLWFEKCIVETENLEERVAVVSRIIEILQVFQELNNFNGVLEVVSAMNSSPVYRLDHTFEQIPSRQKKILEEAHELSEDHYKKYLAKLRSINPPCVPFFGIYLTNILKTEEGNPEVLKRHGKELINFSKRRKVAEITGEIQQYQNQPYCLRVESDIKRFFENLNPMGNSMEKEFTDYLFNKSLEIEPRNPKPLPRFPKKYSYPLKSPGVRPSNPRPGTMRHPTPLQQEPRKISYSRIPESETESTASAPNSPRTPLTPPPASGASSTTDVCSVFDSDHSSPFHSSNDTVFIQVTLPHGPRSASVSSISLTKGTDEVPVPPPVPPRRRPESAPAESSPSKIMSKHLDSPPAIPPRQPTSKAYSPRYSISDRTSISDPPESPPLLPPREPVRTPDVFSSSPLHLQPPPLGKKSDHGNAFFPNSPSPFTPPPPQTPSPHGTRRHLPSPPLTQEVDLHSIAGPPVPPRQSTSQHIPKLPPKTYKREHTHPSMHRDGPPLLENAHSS
Kind of assay: biochemical.

For orientation: IC50 means the concentration at which inhibition is half-maximal. A lower IC50 goes with higher potency. Regarding `C[C@@H](Nc1nnc(-n2cncn2)c2cc(=O)n(C3CC3)cc12)c1cccc(C(F)F)c1F` [Example 1, (R)-6-cyclopropyl-4-((1-(3-(difluoromethyl)-2-fluorophenyl)ethyl)amino)-1-(1H-1,2,4-triazol-1-yl) pyrido[3,4-d]pyridazin-7(6H)-one], 0.0135 µM corresponded to half-maximal inhibition (IC50).

Compound `C[C@@H](Nc1nnc(N2CCCC2)c2cc(=O)n(C3CC3)cc12)c1cccc(C(F)F)c1F` [Example 4, (R)-6-cyclopropyl-4-((1-(3-(difluoromethyl)-2-fluorophenyl)ethyl)amino)-1-(pyrrolidin-1-yl) pyrido[3,4-d]pyridazin-7(6H)-one] had an IC50 of 0.0049 µM. Compared with the last compound, the IC50 is about 2.8-fold lower.

In the case of `C[C@@H](Nc1nnc(N2CCCCC2)c2cc(=O)n(C3(C)CC3)cc12)c1cccc(C(F)F)c1F` [Example 6, (R)-4-((1-(3-(difluoromethyl)-2-fluorophenyl)ethyl)amino)-6-(1-methylcyclopropyl)-1-(piperidin-1-yl)pyrido[3,4-d]pyridazin-7(6H)-one], half-maximal inhibition (IC50) required 0.0148 µM.

The compound `C[C@@H](Nc1nnc(N2CCOCC2)c2cc(=O)n(C3(C)CC3)cc12)c1cccc(C(F)F)c1F` [Example 7, (R)-4-((1-(3-(difluoromethyl)-2-fluorophenyl)ethyl)amino)-6-(1-methylcyclopropyl)-1-morpholinopyrido[3 ,4-d]pyridazin-7(6H)-one] returned an IC50 of 0.0177 µM.

`C[C@@H](Nc1nnc(N(C)C)c2cc(=O)n(C3(C)CC3)cc12)c1cccc(C(F)F)c1F` [Example 8, (R)-4-((1-(3-(difluoromethyl)-2-fluorophenyl)ethyl)amino)-1-(dimethylamino)-6-(1-methylcyclopropyl) pyrido[3,4-d]pyridazin-7(6H)-one] gave an IC50 of 0.0077 µM.

`C[C@@H](Nc1nnc(N2CCC(F)(F)C2)c2cc(=O)n(C3CC3)cc12)c1cccc(C(F)F)c1F` [Example 14, (R)-6-cyclopropyl-4-((1-(3-(difluoromethyl)-2-fluorophenyl)ethyl)amino)-1-(3,3-difluoropyrrolidin-1-yl)pyrido[3,4-d]pyridazin-7(6H)-one] gave an IC50 of 0.0176 µM. Against the preceding compound, the IC50 is about 2.3-fold higher.

Compound `CCN(CC)c1nnc(N[C@H](C)c2cccc(C(F)F)c2F)c2cn(C3CC3)c(=O)cc12` [Example 17, (R)-6-cyclopropyl-1-(diethylamino)-4-((1-(3-(difluoromethyl)-2-fluorophenyl)ethyl)amino)pyrido[3,4-d]pyridazin-7(6H)-one] gave an IC50 of 0.0112 µM.

`C[C@@H](Nc1nnc(N2CC3CC3C2)c2cc(=O)n(C3CC3)cc12)c1cccc(C(F)F)c1F` (stereo partly drawn) [Example 18, 1-(3-azabicyclo[3.1.0]hexan-3-yl)-6-cyclopropyl-4-(((R)-1-(3-(difluoromethyl)-2-fluorophenyl)ethyl)amino)pyrido[3,4-d]pyridazin-7(6H)-one]: the IC50 amounted to 0.0057 µM.

As for `C[C@@H](Nc1nnc(N2CCC(F)(F)CC2)c2cc(=O)n(C3CC3)cc12)c1cccc(C(F)F)c1F` [Example 19, (R)-6-cyclopropyl-4-((1-(3-(difluoromethyl)-2-fluorophenyl)ethyl)amino)-1-(4,4-difluoropiperidin-1-yl)pyrido[3,4-d]pyridazin-7(6H)-one], inhibition was half-maximal at 0.0272 µM (IC50).

Take `C[C@@H](Nc1nnc(N2CC(F)(F)C2)c2cc(=O)n(C3CC3)cc12)c1cccc(C(F)F)c1F` [Example 20, (R)-6-cyclopropyl-1-(3,3-difluoroazetidin-1-yl)-4-((1-(3-(difluoromethyl)-2-fluorophenyl)ethyl)amino)pyrido[3,4-d]pyridazin-7(6H)-one]: 0.0238 µM corresponded to half-maximal inhibition (IC50).

Compound `C[C@@H](Nc1nnc(N2CC3CC3C2)c2cc(=O)n(C3(C)CC3)cc12)c1cccc(C(F)F)c1F` (stereo partly drawn) [Example 21, 1-(3-azabicyclo[3.1.0]hexan-3-yl)-4-(((R)-1-(3-(difluoromethyl)-2-fluorophenyl)ethyl)amino)-6-(1-methylcyclopropyl) pyrido[3,4-d]pyridazin-7(6H)-one] gave an IC50 of 0.0069 µM. Against the preceding compound, the IC50 is about 3.4-fold lower.

`C[C@@H](Nc1nnc(N2CC(F)(F)C2)c2cc(=O)n(C3(C)CC3)cc12)c1cccc(C(F)F)c1F` [Example 22, (R)-1-(3,3-difluoroazetidin-1-yl)-4-((1-(3-(difluoromethyl)-2-fluorophenyl)ethyl)amino)-6-(1-methylcyclopropyl) pyrido[3,4-d]pyridazin-7(6H)-one]: it took 0.0164 µM to reach half-maximal inhibition (IC50). Compared with the last compound, the IC50 is about 2.4-fold higher.

With `C[C@@H](Nc1nnc(N2CCC(F)(F)CC2)c2cc(=O)n(C3(C)CC3)cc12)c1cccc(C(F)F)c1F` [Example 23, (R)-4-((1-(3-(difluoromethyl)-2-fluorophenyl)ethyl)amino)-1-(4,4-difluoropiperidin-1-yl)-6-(1-methylcyclopropyl) pyrido[3,4-d]pyridazin-7(6H)-one], the IC50 was found to be 0.0224 µM.

`C[C@@H](Nc1nnc(N2CCS(=O)(=O)CC2)c2cc(=O)n(C3CC3)cc12)c1cccc(C(F)F)c1F` [Example 24, (R)-6-cyclopropyl-4-((1-(3-(difluoromethyl)-2-fluorophenyl)ethyl)amino)-1-(1,1-dioxidothiomorpholino)pyrido[3,4-d]pyridazin-7(6H)-one] showed an IC50 of 0.0127 µM.

The compound `C[C@@H]1CCCN1c1nnc(N[C@H](C)c2cccc(C(F)F)c2F)c2cn(C3CC3)c(=O)cc12` [Example 25, 6-cyclopropyl-4-(((R)-1-(3-(difluoromethyl)-2-fluorophenyl)ethyl)amino)-1-((R)-2-methylpyrrolidin-1-yl)pyrido[3,4-d]pyridazin-7(6H)-one] had a concentration for half-maximal inhibition (IC50) of 0.012 µM. The IC50 values of the last two compounds are within 1.5-fold of each other.

In turn, `C[C@@H](Nc1nnc(N2CCC(F)(F)C2)c2cc(=O)n(C3(C)CC3)cc12)c1cccc(C(F)F)c1F` [Example 26, (R)-4-((1-(3-(difluoromethyl)-2-fluorophenyl)ethyl)amino)-1-(3,3-difluoropyrrolidin-1-yl)-6-(1-methylcyclopropyl) pyrido[3,4-d]pyridazin-7(6H)-one] registered an IC50 of 0.0188 µM.

In turn, `C[C@@H](Nc1nnc(N2CCS(=O)(=O)CC2)c2cc(=O)n(C3(C)CC3)cc12)c1cccc(C(F)F)c1F` [Example 27, (R)-4-((1-(3-(difluoromethyl)-2-fluorophenyl)ethyl)amino)-1-(1,1-dioxidothiomorpholino)-6-(1-methylcyclopropyl) pyrido[3,4-d]pyridazin-7(6H)-one] returned an IC50 of 0.0165 µM.

In the case of `C[C@@H]1CCCN1c1nnc(N[C@H](C)c2cccc(C(F)F)c2F)c2cn(C3(C)CC3)c(=O)cc12` [Example 28, 4-(((R)-1-(3-(difluoromethyl)-2-fluorophenyl)ethyl)amino)-6-(1-methylcyclopropyl)-1-((R)-2-methylpyrrolidin-1-yl)pyrido[3,4-d]pyridazin-7(6H)-one], the IC50 amounted to 0.0057 µM.

On to `CCN(CC)c1nnc(N[C@H](C)c2cccc(C(F)F)c2F)c2cn(C3(C)CC3)c(=O)cc12` [Example 29, (R)-1-(diethylamino)-4-(((R)1-(3-(difluoromethyl)-2-fluorophenyl)ethyl)amino)-6-(1-methylcyclopropyl) pyrido[3,4-d]pyridazin-7(6H)-one], for which half-maximal inhibition (IC50) was put at 0.0106 µM.

On to `C[C@@H](Nc1nnc(-n2cccn2)c2cc(=O)n(C3CC3)cc12)c1cccc(C(F)F)c1F` [Example 30, (R)-6-cyclopropyl-4-((1-(3-(difluoromethyl)-2-fluorophenyl)ethyl)amino)-1-(1H-pyrazol-1-yl) pyrido[3,4-d]pyridazin-7(6H)-one], for which the IC50 stood at 0.0335 µM. This IC50 lies about 3.2-fold higher than the previous one.
